The values that follow come from patent US8420657B2 (Novartis AG, priority 2008, dated 2013).

Test [1] relates to JAK1/JAK2-dependent nuclear translocation of STAT1-GFP in HT1080 fibrosarcoma cells. As to the kind of experiment: STAT1 nuclear translocation assay (Cellomics), IFN-γ stimulated HT1080 STAT1-GFP cells. The test is classed as cell-based. Particulars: Homo sapiens, HT-1080, STAT1 translocation pathway. A digest of the protocol:
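IC50 derived from percent nuclear STAT1-GFP translocation, computed from nuclear minus cytoplasmic GFP intensity against untreated baseline and DMSO-stimulated control. Stable HT1080 STAT1-GFP cells received compound (0.003–10 μM, 0.1% DMSO) 30 min ahead of a 2 h 100 ng/ml IFN-γ stimulus, then fixation and Hoechst nuclear masking.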

For the next test, the target named is T1, GST-JAK2(808-1132) (Homo sapiens, UniProt O60674).
T1 construct: GST-JAK2(808-1132); purchased Invitrogen (Carlsbad, USA) #4288
Description: JAK2 kinase assay (Caliper mobility shift, LabChip 3000). In kind it is biochemical. The procedure, abridged: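 Eight-point compound series (final 10–0.003 μM) tested on purchased GST-JAK2 kinase domain (808-1132). Peptide FITC-JAK3tide plus ATP reacted 60 min, 30 °C, then quenched with EDTA; turnover from charge-based separation of substrate and product.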

As a reminder, the IC50 is the concentration needed to halve the response being measured.

T1 sequence (O60674 808-1132): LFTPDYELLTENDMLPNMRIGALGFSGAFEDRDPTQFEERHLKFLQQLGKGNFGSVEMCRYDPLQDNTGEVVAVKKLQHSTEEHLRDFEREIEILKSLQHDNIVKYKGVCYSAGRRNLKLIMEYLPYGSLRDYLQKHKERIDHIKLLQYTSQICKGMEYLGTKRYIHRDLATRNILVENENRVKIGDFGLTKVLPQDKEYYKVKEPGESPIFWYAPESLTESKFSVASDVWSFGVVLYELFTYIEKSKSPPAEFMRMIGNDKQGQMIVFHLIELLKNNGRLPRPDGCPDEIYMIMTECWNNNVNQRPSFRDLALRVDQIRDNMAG

Regarding `N#Cc1ccc(Nc2ncc3ccn(-c4cc(F)c(CN5CCOCC5)c(F)c4)c3n2)cc1` [Example 136, 4-[7-(3,5-Difluoro-4-morpholin-4-ylmethyl-phenyl)-7H-pyrrolo[2,3-d]pyrimidin-2-ylamino]-benzonitrile], the concentration for half-maximal inhibition (IC50) came out at 775 nM in test [1] and 11 nM on GST-JAK2(808-1132).
For `Cc1ccc(Nc2ncc3ccn(-c4ccc(CC(=O)N5CCN(C)CC5)cc4)c3n2)cc1` [Example 149, 1-(4-Methyl-piperazin-1-yl)-2-[4-(2-p-tolylamino-pyrrolo[2,3-d]pyrimidin-7-yl)-phenyl]-ethanone], in that order: 1510 nM and 130 nM.
In the same order, the values of `O=C(c1c(F)cc(-n2ccc3cnc(Nc4ccncc4)nc32)cc1F)N1CCOCC1` [Example 217, {2,6-Difluoro-4-[2-(pyridin-4-ylamino)-pyrrolo[2,3-d]pyrimidin-7-yl]-phenyl}-morpholin-4-yl-methanone] are 993 nM and 7.3 nM.
For `Cc1cc(Nc2ncc3ccn(-c4ccc(S(C)(=O)=O)cc4)c3n2)ccc1C(=O)N1CCN(C)CC1` [Example 73, {4-[7-(4-Methanesulfonyl-phenyl)-7H-pyrrolo[2,3-d]pyrimidin-2-ylamino]-2-methyl-phenyl}-(4-methyl-piperazin-1-yl)-methanone], in that order: 80.5 nM and less than 3 nM.
`CC(C)Oc1ccc(Nc2ncc3ccn(-c4ccc(C(=O)N5CCOCC5)cc4F)c3n2)cc1` [Example 522, {3-Fluoro-4-[2-(4-isopropoxy-phenylamino)-pyrrolo[2,3-d]pyrimidin-7-yl]-phenyl}-morpholin-4-yl-methanone]: the 50% inhibitory concentration (IC50) in test [1] was 2890 nM; on GST-JAK2(808-1132) it was 8 nM.
In the same order, the values of `COc1ccc(Nc2ncc3ccn(-c4ccc(S(C)(=O)=O)cc4)c3n2)cc1OCCN1CCCC1` [Example 31, [7-(4-Methanesulfonyl-phenyl)-7H-pyrrolo[2,3-d]pyrimidin-2-yl]-[4-methoxy-3-(2-pyrrolidin-1-yl-ethoxy)-phenyl]-amine] are 46 nM and less than 3 nM.
For `CS(=O)(=O)c1ccc(-n2ccc3cnc(Nc4ccc(C(=O)N5CCNCC5)cc4)nc32)cc1` [Example 87, {4-[7-(4-Methanesulfonyl-phenyl)-7H-pyrrolo[2,3-d]pyrimidin-2-ylamino]-phenyl}-piperazin-1-yl-methanone], in that order: 18300 nM and 3.8 nM.
As for `CC(C)Oc1ccc(Nc2ncc3ccn(-c4ccc(C(=O)N5CCOCC5)cc4)c3n2)cn1` [Example 232], the half-inhibitory concentration (IC50) worked out at 1160 nM in test [1] and 19 nM on GST-JAK2(808-1132).
For `CC(C)Oc1ccc(Nc2ncc3ccn(-c4cc(F)c(CN5CCS(=O)(=O)CC5)c(F)c4)c3n2)cc1` [Example 194, {7-[4-(1,1-Dioxido-thiomorpholin-4-ylmethyl)-3,5-difluoro-phenyl]-7H-pyrrolo[2,3-d]pyrimidin-2-yl}-(4-isopropoxy-phenyl)-amine], in that order: 202 nM and less than 3 nM.
In the same order, the values of `O=C(Cc1ccc(-n2ccc3cnc(Nc4ccc(C(F)(F)F)cc4)nc32)cc1)N1CCOCC1` [Example 144, 1-Morpholin-4-yl-2-{4-[2-(4-trifluoromethyl-phenylamino)-pyrrolo[2,3-d]pyrimidin-7-yl]-phenyl}-ethanone] are 475 nM and 4.7 nM.
As for `COCc1ccc(Nc2ncc3ccn(-c4cc(F)c(C(=O)N5CCN(C)CC5)c(F)c4)c3n2)cc1` [Example 189, {2,6-Difluoro-4-[2-(4-methoxymethyl-phenylamino)-pyrrolo[2,3-d]pyrimidin-7-yl]-phenyl}-(4-methyl-piperazin-1-yl)-methanone], the IC50 was determined as 846 nM in test [1] and 9.5 nM at GST-JAK2(808-1132).
In the same order, the values of `CN1CCN(C(=O)c2ccc(Nc3ncc4ccn(-c5ccc(CN6CCOCC6)c(F)c5)c4n3)cc2F)CC1` [Example 158, {2-Fluoro-4-[7-(3-fluoro-4-morpholin-4-ylmethyl-phenyl)-7H-pyrrolo[2,3-d]pyrimidin-2-ylamino]-phenyl}-(4-methyl-piperazin-1-yl)-methanone] are 265 nM and 9.4 nM.
With `CS(=O)(=O)c1ccc(-n2ccc3cnc(Nc4ccc(CN5CCCCC5)cc4)nc32)cc1` [Example 42, [7-(4-Methanesulfonyl-phenyl)-7H-pyrrolo[2,3-d]pyrimidin-2-yl]-(4-piperidin-1-ylmethyl-phenyl)-amine], the IC50 in test [1] worked out at 170 nM; on GST-JAK2(808-1132), 3.1 nM.
In the same order, the values of `CCN(CC)CCOc1cccc(Nc2ncc3ccn(-c4ccc(S(C)(=O)=O)cc4)c3n2)c1` [Example 36, [3-(2-Diethylamino-ethoxy)-phenyl]-[7-(4-methanesulfonyl-phenyl)-7H-pyrrolo[2,3-d]pyrimidin-2-yl]-amine] are 10.9 nM and less than 3 nM.
For `COCCn1cc(Nc2ncc3ccn(-c4cc(F)c(C(=O)N5CCOCC5)c(F)c4)c3n2)cn1` [Example 251, (2,6-Difluoro-4-{2-[1-(2-methoxy-ethyl)-1H-pyrazol-4-ylamino]-pyrrolo[2,3-d]pyrimidin-7-yl}-phenyl)-morpholin-4-yl-methanone], the IC50 is 450 nM in test [1] and 6.1 nM on GST-JAK2(808-1132).
As to `CC(C)Oc1ccc(Nc2ncc3ccn(-c4ccc(CN5CCOCC5)cc4)c3n2)cc1` [Example 109, (4-Isopropoxy-phenyl)-[7-(4-morpholin-4-ylmethyl-phenyl)-7H-pyrrolo[2,3-d]pyrimidin-2-yl]-amine], the half-inhibitory concentration (IC50) in test [1] is 310 nM; at GST-JAK2(808-1132), 8.3 nM.
For `Cc1cc(Nc2ncc3ccn(-c4cc(F)c(C(=O)N5CCOCC5)c(F)c4)c3n2)ccc1F` [Example 213, {2,6-Difluoro-4-[2-(4-fluoro-3-methyl-phenylamino)-pyrrolo[2,3-d]pyrimidin-7-yl]-phenyl}-morpholin-4-yl-methanone], in that order: 728 nM and 5.9 nM.
For `COc1ccc(Nc2ncc3ccn(-c4ccc(C(=O)NC(C)(C)C)cc4)c3n2)cc1OC` [Example 7, N-tert-Butyl-4-[2-(3,4-dimethoxy-phenylamino)-pyrrolo[2,3-d]pyrimidin-7-yl]-benzamide], in that order: 254 nM and 6.2 nM.
Take `CN1CCN(Cc2ccc(Nc3ncc4ccn(-c5ccc(S(C)(=O)=O)cc5)c4n3)cc2)CC1=O` [Example 335, 4-{4-[7-(4-Methanesulfonyl-phenyl)-7H-pyrrolo[2,3-d]pyrimidin-2-ylamino]-benzyl}-1-methyl-piperazin-2-one]: the IC50 in test [1] was 360 nM; on GST-JAK2(808-1132), 9.3 nM.
For `O=C(c1ccc(-n2ccc3cnc(Nc4ccc(F)cc4)nc32)cc1)N1CCCC1` [Example 57, {4-[2-(4-Fluoro-phenylamino)-pyrrolo[2,3-d]pyrimidin-7-yl]-phenyl}-pyrrolidin-1-yl-methanone], in that order: 772 nM and less than 3 nM.
In the same order, the values of `O=C1CN(Cc2ccc(Nc3ncc4ccn(-c5cc(F)c(C(=O)N6CCOCC6)c(F)c5)c4n3)cc2)CCN1` [Example 259, 4-(4-{7-[3,5-Difluoro-4-(morpholine-4-carbonyl)-phenyl]-7H-pyrrolo[2,3-d]pyrimidin-2-ylamino}-benzyl)-piperazin-2-one] are 80 nM and less than 3 nM.
